From publication PMC10275055, “Preventing recurrence in Sonic Hedgehog Subgroup Medulloblastoma using the OLIG2 inhibitor CT-179” (Research Square, 2023) come the findings set out here.

One experiment deals with R403 and R902 MBOs. Nature of the experiment: MB explant organoids (MBOs), cleaved caspase-3 staining. Format: cell-based, human. The conditions noted are these: 1 μM, 48 hours, CT-179 alone. An excerpt: MB cell lines Daoy, UW228, and D283 were obtained from the American Type Culture Collection (ATCC) and cultured in RPMI supplemented with 1% Penicillin-Streptomycin, 1% GlutaMax-I CTS (Gibco) and 10% fetal bovine serum (FBS) (Gibco). MB002, D425 and PER547 primary cell lines were kindly provided by Dr. Tobias Schoep (Telethon Kids Institute, WA). Med-2312 PDX, Neo-113 PDX, Med-2112 PDX, Med-113 PDX and Med-813 PDX were filter tissues purchased from the Olson Laboratory (https://research.fhcrc.org/olson/en/btrl.html). Cell lines derived from the corresponding PDX tissues were labelled as primary cell lines. MB-R201 PDX is a MB PDX model generated and established in our laboratory. MB-R203 is a primary MB cell line. Primary cell lines were derived from MB patient specimens and cultured either in serum-free media grown as spheres or on matrigel. The serum-free media was prepared as previously described. Fresh surgically resected MB tissues were obtained from Queensland Children’s Tumor Bank. MB explant organoids (MBOs), R403 and R901, were generated by microdissection under a stereomicroscope (Zeiss) within a laminar flow biosafety cabinet. The MBOs were cultured in glioblastoma organoid (GBO) medium modified based on Jacob et al.. All cell lines were incubated at 37 °C under 5% CO2/95% humidified air atmosphere. […]

Another experiment has as its system UW228 MB cell line. The experiment in a line: Cell viability, 7 days treatment, UW228. It is filed as cell-based. The conditions noted are these: Homo sapiens, 168 h; UW228, 7 days. The protocol:
Cell proliferation was determined by a CellTiter 96® Non-Radioactive Cell Proliferation Assay (Promega) kit. Absorbance at 490 nm was measured on a Biotek PowerWave (Biotek, USA) plate scanner to obtain raw data. Average absorbance from triplicate wells were plotted against concentration using GraphPad Prism software v.7.0 (GraphPad software). At the indicated time points, cells were stained using FITC-conjugated Annexin V and Annexin V binding buffer (BD Pharmingen™) according to the manufacturer’s instructions. Annexin V or propidium iodide (PI)-positive cells were analyzed using a Fortessa 5 Flow Cytometer (Becton Dickinson) and data was analyzed using FlowJo® software (Tree Star).

Experiment [1] deals with T1, Fetal Liver Tyrosine Kinase 3 (FLT3) (Homo sapiens, UniProt P36888).
T1 sequence (P36888 27-993): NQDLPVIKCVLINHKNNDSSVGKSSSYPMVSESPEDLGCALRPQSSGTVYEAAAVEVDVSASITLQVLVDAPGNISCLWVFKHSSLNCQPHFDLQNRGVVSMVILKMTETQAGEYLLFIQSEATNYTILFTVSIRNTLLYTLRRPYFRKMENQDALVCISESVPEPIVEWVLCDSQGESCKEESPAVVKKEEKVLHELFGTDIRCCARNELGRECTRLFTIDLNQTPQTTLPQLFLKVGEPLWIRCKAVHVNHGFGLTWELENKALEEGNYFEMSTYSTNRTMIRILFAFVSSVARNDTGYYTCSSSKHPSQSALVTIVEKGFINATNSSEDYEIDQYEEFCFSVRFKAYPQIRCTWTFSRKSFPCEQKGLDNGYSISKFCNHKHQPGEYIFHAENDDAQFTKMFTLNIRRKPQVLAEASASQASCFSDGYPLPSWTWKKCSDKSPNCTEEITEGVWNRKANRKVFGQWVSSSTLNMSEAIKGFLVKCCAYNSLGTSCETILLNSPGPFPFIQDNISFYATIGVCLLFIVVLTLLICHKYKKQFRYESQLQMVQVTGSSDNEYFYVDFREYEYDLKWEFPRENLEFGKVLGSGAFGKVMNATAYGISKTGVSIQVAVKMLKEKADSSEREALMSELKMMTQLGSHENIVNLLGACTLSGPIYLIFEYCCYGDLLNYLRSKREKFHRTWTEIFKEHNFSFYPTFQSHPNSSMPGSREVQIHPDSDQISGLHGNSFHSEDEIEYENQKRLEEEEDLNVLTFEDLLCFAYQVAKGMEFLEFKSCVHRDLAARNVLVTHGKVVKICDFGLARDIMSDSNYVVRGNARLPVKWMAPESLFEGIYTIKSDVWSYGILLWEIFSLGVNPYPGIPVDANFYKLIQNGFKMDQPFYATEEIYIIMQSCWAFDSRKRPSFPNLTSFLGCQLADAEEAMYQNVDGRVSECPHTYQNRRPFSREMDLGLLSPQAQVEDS
Nature of the experiment: Kinase profiling (KINOMEscan / SelectScreen) and dose response follow-up, FLT3. The conditions noted are these: ATP equal to Km. It is filed as biochemical. The method, then:
Effect of CT-179 on protein kinase activity was evaluated using the Thermofisher Scientific SelectScreen Kinase Profiling Service. Over 400 human protein kinases were tested in the presence of 1 μM final concentration of CT-179 at an ATP concentration equal to the known ATP Km for each kinase. The experiment was done by Curtana Pharmaceuticals. Data is presented as percentage of inhibition of enzyme activity. Software CORAL was used to make the kinome tree, which is available from: http://phanstiel-lab.med.unc.edu/CORAL/.

`Cc1cc(NCCCN(C)C)nc(NC(=O)Nc2ccc(Cl)c(Cl)c2)n1` [CT-179]: the “cell death, cleaved caspase-3 staining” value with R403 and R902 MBOs is reported as “significant cell death”. The molecule also yielded an IC50 in the experiment with UW228 MB cell line of 285 nM. The inhibition at 1 µM in experiment [1] came out at 84%.
